Data on 19 compounds can be found in US20140005163A1 (NOVARTIS AG, priority 2010, published 2014).

One may read the IC50 as the concentration needed to halve the response being measured.

In assay [1] the test system is PKB Ser473 phosphorylation in Rat1-myr-HA-p110 beta cells. Put plainly: Reverse protein array assay, PKB Ser473 phosphorylation in Rat1-myr-p110 beta cells. Format: cell-based. To be noted: 0.5 h, pAkt Ser473, 30 minutes incubation, read-out: p-PKB IC50. In short, it runs like this:
(§1)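 Lysates were arrayed at four dilutions, and phospho-PKB Ser473 was quantified by relative fluorescence signal. They came from Rat1-myr-HA-p110 alpha, beta or delta cells exposed for 30 min at 37 °C to an 8-point compound series with 0.2% DMSO constant.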

Assay [2] relates to S6 Ribosomal Protein phosphorylation Ser235/236 in TSC1 null mouse embryo fibroblast (MEF) cells. Put plainly: Reverse protein array assay, S6 Ribosomal Protein phosphorylation Ser235/236 in TSC1 null MEF cells. It counts as cell-based. As to conditions: 1 h, pS6 ribosomal protein Ser235/236, 60 minutes incubation, read-out: p-S6 IC50. In short, it runs like this: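 TSC1−/− MEFs, seeded and held ≥20 h at 37 °C/5% CO2, were exposed to 8-step serial compound dilutions (0.02% DMSO final; DMSO vehicle control) for 60 min at 37 °C. Cells were then lysed on ice for 10 min and lysates spotted onto reverse protein array chips.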

Another assay has as its target T1, PI3K delta (Homo sapiens, UniProt O00329).
T1 construct: for the full-length p110-d subunit are generated and fused by overlapping PCR; p85(iSH2) fusion partner (see partner chain) (N); His tag (C); made in house; host or cells: baculovirus; Tn5 (Trichoplusia ni) or TiniPro insect cells
Put plainly: PI3K delta kinase assay (Kinase-Glo luminescence). Format: biochemical. Summed up:
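Construct BV-1060, p85 iSH2–linker–full-length p110δ, His-tagged, at 10 nM, with 1 μM ATP and 10 μg/mL phosphatidylinositol in pH 7.5 Tris, 3 mM MgCl2, 50 mM NaCl, 0.05% CHAPS. Run 60 min at room temperature; remaining ATP read by Kinase-Glo luminescence; IC50 from 4-parameter logistic fit of 8 concentrations.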

Assay [3] concerns PKB Ser473 phosphorylation in Rat1-myr-HA-p110 alpha cells. Briefly: Reverse protein array assay, PKB Ser473 phosphorylation in Rat1-myr-p110 alpha cells. To be noted: 0.5 h, pAkt Ser473, 30 minutes compound incubation, read-out: p-PKB IC50. Format: cell-based. Summed up: as §1

T1 sequence (O00329 with tags, fused parts or gaps limits assumed): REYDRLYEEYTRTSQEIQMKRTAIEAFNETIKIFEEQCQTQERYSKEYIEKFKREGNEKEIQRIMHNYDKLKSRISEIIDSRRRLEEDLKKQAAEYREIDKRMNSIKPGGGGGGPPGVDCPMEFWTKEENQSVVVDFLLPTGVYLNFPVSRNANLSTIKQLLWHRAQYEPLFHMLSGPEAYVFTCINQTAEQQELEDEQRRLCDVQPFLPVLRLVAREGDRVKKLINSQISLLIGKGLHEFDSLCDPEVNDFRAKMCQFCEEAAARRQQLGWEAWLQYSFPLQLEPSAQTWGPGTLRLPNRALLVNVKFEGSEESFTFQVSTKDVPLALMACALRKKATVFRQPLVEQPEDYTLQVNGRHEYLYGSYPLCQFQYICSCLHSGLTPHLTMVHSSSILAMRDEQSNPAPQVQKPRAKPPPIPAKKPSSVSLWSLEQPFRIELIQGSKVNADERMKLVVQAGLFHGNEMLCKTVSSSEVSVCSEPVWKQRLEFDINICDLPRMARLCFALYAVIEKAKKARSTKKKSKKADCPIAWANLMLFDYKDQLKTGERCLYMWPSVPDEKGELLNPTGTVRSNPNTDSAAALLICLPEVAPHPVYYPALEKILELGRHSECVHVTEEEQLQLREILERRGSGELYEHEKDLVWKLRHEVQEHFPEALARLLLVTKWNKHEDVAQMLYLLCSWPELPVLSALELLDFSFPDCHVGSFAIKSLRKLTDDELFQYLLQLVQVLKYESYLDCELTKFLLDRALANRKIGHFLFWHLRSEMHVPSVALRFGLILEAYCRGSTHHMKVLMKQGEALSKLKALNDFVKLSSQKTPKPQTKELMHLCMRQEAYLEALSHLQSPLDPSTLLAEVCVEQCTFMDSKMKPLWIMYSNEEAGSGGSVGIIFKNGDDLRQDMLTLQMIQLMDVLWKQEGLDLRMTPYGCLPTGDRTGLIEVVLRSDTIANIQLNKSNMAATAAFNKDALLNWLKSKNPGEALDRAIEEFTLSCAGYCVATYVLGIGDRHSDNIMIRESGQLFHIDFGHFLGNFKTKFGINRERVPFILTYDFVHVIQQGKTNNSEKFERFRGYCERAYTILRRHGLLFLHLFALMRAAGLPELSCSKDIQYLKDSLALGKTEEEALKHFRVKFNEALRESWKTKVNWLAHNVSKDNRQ

Regarding `CNc1ccc(-c2ccc3ncc4c(c3c2)n(-c2cn(C(C)C)nc2C)c(=O)n4C)cn1` [Example 118.1, 1-(1-isopropyl-3-methyl-1H-pyrazol-4-yl)-3-methyl-8-(6-methylamino-pyridin-3-yl)-1,3-dihydro-imidazo[4,5-c]quinolin-2-one], the IC50 in assay [1] was 14 nM; in assay [2] it was 5 nM; at PI3K delta, 18 nM; in assay [3] it was 8 nM.

In the case of `CNc1ccc(-c2ccc3ncc4c(c3c2)n(-c2cn(CC(=O)N(C)C)nc2C)c(=O)n4C)cn1` [Example 118.3, N,N-Dimethyl-2-{3-methyl-4-[3-methyl-8-(6-methylamino-pyridin-3-yl)-2-oxo-2,3-dihydro-imidazo[4,5-c]quinolin-1-yl]-pyrazol-1-yl}-acetamide], the IC50 in assay [1] amounted to 43 nM; in assay [2] it was 15 nM; on PI3K delta, 84 nM; in assay [3], 107 nM.

For the compound `CNc1ccc(-c2ccc3ncc4c(c3c2)n(-c2cn(C)nc2Cl)c(=O)n4C)cn1` [Example 118.5, 1-(3-Chloro-1-methyl-1H-pyrazol-4-yl)-3-methyl-8-(6-methylamino-pyridin-3-yl)-1,3-dihydro-imidazo[4,5-c]quinolin-2-one], the IC50 in assay [1] was less than 5 nM; in assay [2], less than 0.5 nM; at PI3K delta, 5 nM; in assay [3], less than 5 nM.

`CCNc1cncc(-c2ccc3ncc4c(c3c2)n(-c2cn(C)nc2C)c(=O)n4C)c1` [Example 122, 1-(1,3-Dimethyl-1H-pyrazol-4-yl)-8-(5-ethylamino-pyridin-3-yl)-3-methyl-1,3-dihydro-imidazo[4,5-c]quinolin-2-one]: the IC50 in assay [1] was 22 nM; in assay [2], less than 0.5 nM; at PI3K delta, 14 nM; in assay [3], less than 5 nM.

With `CCOc1ccc(-c2ccc3ncc4c(c3c2)n(-c2cn(CCOC)nc2C)c(=O)n4C)cn1` [Example 131, 8-(6-Ethoxy-pyridin-3-yl)-1-[1-(2-methoxy-ethyl)-3-methyl-1H-pyrazol-4-yl]-3-methyl-1,3-dihydro-imidazo[4,5-c]quinolin-2-one], the IC50 in assay [1] came out at 29 nM; in assay [2] it was 5 nM; at PI3K delta it was 271 nM; in assay [3], 41 nM.

On to `Cc1nn(C)cc1-n1c(=O)n(C)c2cnc3ccc(-c4cnc(N)c(F)c4)cc3c21` [Example 142.2, 8-(6-Amino-5-fluoro-pyridin-3-yl)-1-(1,3-dimethyl-1H-pyrazol-4-yl)-3-methyl-1,3-dihydro-imidazo[4,5-c]quinolin-2-one], for which the IC50 in assay [1] is 11 nM; in assay [2], less than 0.5 nM; at PI3K delta, 33 nM; in assay [3], 6 nM.

Take `[2H]C([2H])([2H])Nc1ncc(-c2ccc3ncc4c(c3c2)n(-c2c(C)nn(C)c2C)c(=O)n4C)cc1C(F)(F)F` [Example 143, 3-Methyl-8-(6-trideuteromethylamino-5-trifluoromethyl-pyridin-3-yl)-1-(1,3,5-trimethyl-1H-pyrazol-4-yl)-1,3-dihydro-imidazo[4,5-c]quinolin-2-one]: the IC50 in assay [1] was 57 nM; in assay [2] it was 9 nM; at PI3K delta, 10 nM; in assay [3], 40 nM.

Take `CCNc1ncc(-c2ccc3ncc4c(c3c2)n(-c2c(C)nn(C)c2C)c(=O)n4C)cc1C(F)(F)F` [Example 145.1, 8-(6-Ethylamino-5-trifluoromethyl-pyridin-3-yl)-3-methyl-1-(1,3,5-trimethyl-1H-pyrazol-4-yl)-1,3-dihydro-imidazo[4,5-c]quinolin-2-one]: the IC50 in assay [1] was 168 nM; in assay [2], 50 nM; on PI3K delta, 18 nM; in assay [3], 69 nM.

For `CNc1ncc(-c2ccc3ncc4c(c3c2)n(-c2cn(C(C)C)nc2C)c(=O)n4C)cc1Cl` [Example 146.3, 8-(5-Chloro-6-methylamino-pyridin-3-yl)-1-(1-isopropyl-3-methyl-1H-pyrazol-4-yl)-3-methyl-1,3-dihydro-imidazo[4,5-c]quinolin-2-one], the IC50 in assay [1] came out at 119 nM; in assay [2], 3 nM; at PI3K delta, 14 nM; in assay [3], 20 nM.

For the compound `CNc1ncc(-c2ccc3ncc4c(c3c2)n(-c2c(C)noc2C)c(=O)n4C)cc1Cl` [Example 146.6, 8-(5-Chloro-6-methylamino-pyridin-3-yl)-1-(3,5-dimethyl-isoxazol-4-yl)-3-methyl-1,3-dihydro-imidazo[4,5-c]quinolin-2-one], the IC50 is 428 nM in assay [1], 278 nM in assay [2], 10 nM on PI3K delta and 172 nM in assay [3].

As for `CCNc1ncc(-c2ccc3ncc4c(c3c2)n(-c2cn(C)nc2C)c(=O)n4C)cc1Cl` [Example 147, 8-(5-Chloro-6-ethylamino-pyridin-3-yl)-1-(1,3-dimethyl-1H-pyrazol-4-yl)-3-methyl-1,3-dihydro-imidazo[4,5-c]quinolin-2-one], the IC50 amounted to 30 nM in assay [1], 5.53 nM in assay [2], 8 nM on PI3K delta and 17 nM in assay [3].

Consider `Cc1nn(C)cc1-n1c(=O)n(C)c2cnc3ccc(-c4cnc(F)c(N(C)C)c4)cc3c21` [Example 151, 8-(5-Dimethylamino-6-fluoro-pyridin-3-yl)-1-(1,3-dimethyl-1H-pyrazol-4-yl)-3-methyl-1,3-dihydro-imidazo[4,5-c]quinolin-2-one], for which the half-inhibitory concentration (IC50) in assay [1] was determined as 22 nM; in assay [2], 4 nM; at PI3K delta, 5 nM; in assay [3], 21 nM.

For `Cc1nn(C)cc1-n1c(=O)n(C)c2cnc3ccc(-c4cnc(Cl)c(N)c4)cc3c21` [Example 152.2, 8-(5-Amino-6-chloro-pyridin-3-yl)-1-(1,3-dimethyl-1H-pyrazol-4-yl)-3-methyl-1,3-dihydro-imidazo[4,5-c]quinolin-2-one], the IC50 in assay [1] is 10 nM; in assay [2], 1 nM; at PI3K delta, 28 nM; in assay [3], less than 5 nM.

As to `CCNc1cc(-c2ccc3ncc4c(c3c2)n(-c2cn(C)nc2C)c(=O)n4C)cnc1COC` [Example 156, 1-(1,3-Dimethyl-1H-pyrazol-4-yl)-8-(5-ethylamino-6-methoxymethyl-pyridin-3-yl)-3-methyl-1,3-dihydro-imidazo[4,5-c]quinolin-2-one], the half-maximal inhibitory concentration (IC50) is 5 nM in assay [1], 1 nM in assay [2], 17 nM at PI3K delta and 10 nM in assay [3].

On to `CNc1cc(-c2ccc3ncc4c(c3c2)n(-c2cn(C)nc2C)c(=O)n4C)cnc1CO` [Example 158.1, 1-(1,3-Dimethyl-1H-pyrazol-4-yl)-8-(6-hydroxymethyl-5-methylamino-pyridin-3-yl)-3-methyl-1,3-dihydro-imidazo[4,5-c]quinolin-2-one], for which the IC50 in assay [1] came to 17 nM; in assay [2], 8 nM; at PI3K delta it was 15 nM; in assay [3], 6 nM.

As for `CNc1cc(-c2ccc3ncc4c(c3c2)n(-c2c(C)nn(C)c2C)c(=O)n4C)cnc1CO` [Example 158.4, 8-(6-Hydroxymethyl-5-methylamino-pyridin-3-yl)-3-methyl-1-(1,3,5-trimethyl-1H-pyrazol-4-yl)-1,3-dihydro-imidazo[4,5-c]quinolin-2-one], the IC50 amounted to 88 nM in assay [1], 150 nM in assay [2], 11 nM on PI3K delta and 114 nM in assay [3].

As to `CNc1cc(-c2ccc3ncc4c(c3c2)n(-c2cn(C)nc2Cl)c(=O)n4C)cnc1COC` [Example 160.1, 1-(3-Chloro-1-methyl-1H-pyrazol-4-yl)-8-(6-methoxymethyl-5-methylamino-pyridin-3-yl)-3-methyl-1,3-dihydro-imidazo[4,5-c]quinolin-2-one], the IC50 was less than 5 nM in assay [1], less than 0.5 nM in assay [2], less than 3 nM on PI3K delta and less than 5 nM in assay [3].

For `CCOCc1cc(-c2ccc3ncc4c(c3c2)n(-c2cn(CC)nc2C)c(=O)n4C)cnc1N` [Example 166.2, 8-(6-Amino-5-ethoxymethyl-pyridin-3-yl)-1-(1-ethyl-3-methyl-1H-pyrazol-4-yl)-3-methyl-1,3-dihydro-imidazo[4,5-c]quinolin-2-one], the IC50 in assay [1] was found to be 86 nM; in assay [2], 2.26 nM; on PI3K delta, 7 nM; in assay [3], 38 nM.

As to `COCc1cc(-c2ccc3ncc4c(c3c2)n(-c2cn(C(C)C)nc2C)c(=O)n4C)cnc1N` [Example 168.1, 8-(6-Amino-5-methoxymethyl-pyridin-3-yl)-1-(1-isopropyl-3-methyl-1H-pyrazol-4-yl)-3-methyl-1,3-dihydro-imidazo[4,5-c]quinolin-2-one], the IC50 in assay [1] turned out to be 25 nM; in assay [2], 1 nM; on PI3K delta, 5 nM; in assay [3], 20 nM.
